# In patent publication US20180243298A1, “TRPV3 MODULATORS” (AbbVie Inc., priority 2015, published 2018):
# Target: T1, human TRPV3 (Homo sapiens, UniProt Q8NET8)
# T1 construct: expressed in transfected cells; host or cells: HEK293
# T1 sequence (Q8NET8 1-790): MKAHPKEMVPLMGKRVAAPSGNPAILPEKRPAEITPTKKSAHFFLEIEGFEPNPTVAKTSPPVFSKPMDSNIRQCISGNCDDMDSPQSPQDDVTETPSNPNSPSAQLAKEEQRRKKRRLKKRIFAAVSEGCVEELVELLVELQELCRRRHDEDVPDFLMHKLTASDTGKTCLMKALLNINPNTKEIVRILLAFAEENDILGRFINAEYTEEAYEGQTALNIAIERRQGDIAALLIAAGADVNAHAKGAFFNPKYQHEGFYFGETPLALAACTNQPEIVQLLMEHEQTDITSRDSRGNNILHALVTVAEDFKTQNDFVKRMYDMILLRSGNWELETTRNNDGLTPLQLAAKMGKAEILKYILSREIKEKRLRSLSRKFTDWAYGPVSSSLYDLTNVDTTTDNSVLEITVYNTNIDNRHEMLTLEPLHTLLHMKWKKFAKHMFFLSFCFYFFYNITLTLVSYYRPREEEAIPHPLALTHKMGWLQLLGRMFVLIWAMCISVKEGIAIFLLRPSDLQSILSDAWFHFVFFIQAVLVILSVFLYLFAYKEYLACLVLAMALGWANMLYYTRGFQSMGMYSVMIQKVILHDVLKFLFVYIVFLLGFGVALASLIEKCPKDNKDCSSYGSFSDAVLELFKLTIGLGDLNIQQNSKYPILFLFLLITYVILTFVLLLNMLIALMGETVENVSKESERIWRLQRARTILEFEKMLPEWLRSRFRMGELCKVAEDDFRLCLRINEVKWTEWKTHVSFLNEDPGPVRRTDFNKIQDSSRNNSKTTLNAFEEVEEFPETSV
# Test: Calcium flux assay (FLIPR TETRA), recombinant HEK293 cells expressing TRPV3, 2-APB response
# Assay type: cell-based
# Details: 2-APB at its EC80
# Method: (i) In Vitro Methods-Calcium Flux Assays:
# Experiments were conducted using the FLIPR TETRA®. On the day prior to the experiment, recombinant HEK293 cells that stably express human and mouse TRPV3 were removed from tissue culture flasks and plated in growth medium at 20,000 cells/well into black-walled clear-bottom 384-well BIOCOAT™ poly-D-lysine assay plates (BD Biosciences, Bedford, Mass.) using a MULTIDROP® dispenser (ThermoScientific, Waltham, Mass.). On the day of the experiment, growth medium was removed, and the no-wash FLIPR® Calcium-4 dye (λEX=470-495 nm, λEM=515-575 nm; Molecular Devices, Sunnyvale, Calif.) was added to each well using the MULTIDROP® dispenser. Cells were incubated for 90-120 minutes in the dark. The compounds were dissolved in DMSO to prepare a 10 mM stock solution. The intensity of the fluorescence was captured and digitally transferred to an interfaced PC. The peak increase in fluorescence over baseline, measured in relative fluorescence units, was calculated and expressed as the percentage of the maximal 2-APB (2-aminoethoxyldiphenyl borate) response (in the absence of compound). The concentration of 2-APB corresponds to its EC80.
row,Compound,IC50 [nM]
1,"4,6-dimethoxy-N-[5-(2-methoxypyrimidin-5-yl)-4-(trifluoromethyl)-1,3-thiazol-2-yl]pyrimidine-5-carboxamide [Example 183]",100 to 500
2,"COc1ncnc(OC)c1C(=O)Nc1nc(-c2ccc(C(F)(F)F)cn2)c(C(C)O)s1 (single isomer, unassigned) [Example 84, N-{5-[(1S*)-1-hydroxyethyl]-4-[5-(trifluoromethyl)pyridin-2-yl]-1,3-thiazol-2-yl}-4,6-dimethoxypyrimidine-5-carboxamide]",100 to 500
3,"COc1ncnc(OC)c1C(=O)Nc1nc(C(F)(F)F)c(C2CCCOC2)s1 (single isomer, unassigned) [Example 149, 4,6-dimethoxy-N-{5-[(3S*)-tetrahydro-2H-pyran-3-yl]-4-(trifluoromethyl)-1,3-thiazol-2-yl}pyrimidine-5-carboxamide]",> 1000
4,"COc1ncnc(OC)c1C(=O)Nc1nc(C(F)(F)F)c([C@@H]2CCCOC2)s1 (single isomer, unassigned) [Example 150]",100 to 500
5,"COc1ncnc(OC)c1C(=O)Nc1nc(C(F)(F)F)c(C)s1 [Example 1, 4,6-dimethoxy-N-[5-methyl-4-(trifluoromethyl)-1,3-thiazol-2-yl]pyrimidine-5-carboxamide]",50 to 100
6,"COc1ncnc(OC)c1C(=O)Nc1nc(C(F)(F)F)cs1 [Example 3, 4,6-dimethoxy-N-[4-(trifluoromethyl)-1,3-thiazol-2-yl]pyrimidine-5-carboxamide]",100 to 500
7,"COc1ncnc(OC)c1C(=O)Nc1nc(C(F)(F)F)c(-c2ccc(Cl)cc2)s1 [Example 4, N-[5-(4-chlorophenyl)-4-(trifluoromethyl)-1,3-thiazol-2-yl]-4,6-dimethoxypyrimidine-5-carboxamide]",50 to 100
8,"CCc1sc(NC(=O)c2c(OC)ncnc2OC)nc1C(F)(F)F [Example 6, N-[5-ethyl-4-(trifluoromethyl)-1,3-thiazol-2-yl]-4,6-dimethoxypyrimidine-5-carboxamide]",< 50
9,"COc1ncnc(OC)c1C(=O)Nc1nc(C(F)(F)F)c(C#C[Si](C)(C)C)s1 [Example 10, 4,6-dimethoxy-N-{4-(trifluoromethyl)-5-[(trimethylsilyl)ethynyl]-1,3-thiazol-2-yl}pyrimidine-5-carboxamide]",< 50
10,"COc1ncnc(OC)c1C(=O)Nc1nc(C(F)(F)F)c(C#CCO)s1 [Example 12, N-[5-(3-hydroxyprop-1-yn-1-yl)-4-(trifluoromethyl)-1,3-thiazol-2-yl]-4,6-dimethoxypyrimidine-5-carboxamide]",100 to 500
11,"COc1ncnc(OC)c1C(=O)Nc1nc(C(F)(F)F)c(CCCO)s1 [Example 13, N-[5-(3-hydroxypropyl)-4-(trifluoromethyl)-1,3-thiazol-2-yl]-4,6-dimethoxypyrimidine-5-carboxamide]",> 1000
12,"COC/C=C/c1sc(NC(=O)c2c(OC)ncnc2OC)nc1C(F)(F)F [Example 18, 4,6-dimethoxy-N-{5-[(1E)-3-methoxyprop-1-en-1-yl]-4-(trifluoromethyl)-1,3-thiazol-2-yl}pyrimidine-5-carboxamide]",< 50
13,"COc1ncnc(OC)c1C(=O)Nc1nc(C(F)(F)F)c(-c2ccc(N3CCOCC3)nc2)s1 [Example 23, 4,6-dimethoxy-N-{5-[6-(morpholin-4-yl)pyridin-3-yl]-4-(trifluoromethyl)-1,3-thiazol-2-yl}pyrimidine-5-carboxamide]",100 to 500

# The next lines start with the values.
row,IC50 [nM],Compound
1,100 to 500,"COc1ncnc(OC)c1C(=O)Nc1nc(-c2ccc(C(F)(F)F)cn2)c(C(C)O)s1 (single isomer, unassigned) [Example 83, N-{5-[(1R*)-1-hydroxyethyl]-4-[5-(trifluoromethyl)pyridin-2-yl]-1,3-thiazol-2-yl}-4,6-dimethoxypyrimidine-5-carboxamide]"
2,< 50,"COc1ncnc(OC)c1C(=O)Nc1nc(C(F)(F)F)c(I)s1 [Example 2, N-[5-iodo-4-(trifluoromethyl)-1,3-thiazol-2-yl]-4,6-dimethoxypyrimidine-5-carboxamide]"
3,500 to 1000,"CCOc1ncnc(OCC)c1C(=O)Nc1nc(C(F)(F)F)c(-c2ccc(Cl)cc2)s1 [Example 5, N-[5-(4-chlorophenyl)-4-(trifluoromethyl)-1,3-thiazol-2-yl]-4,6-diethoxypyrimidine-5-carboxamide]"
4,500 to 1000,"CCOc1ncnc(OCC)c1C(=O)Nc1nc(C(F)(F)F)c(C#N)s1 [Example 7, N-[5-cyano-4-(trifluoromethyl)-1,3-thiazol-2-yl]-4,6-diethoxypyrimidine-5-carboxamide]"
5,50 to 100,"COc1ncnc(OC)c1C(=O)Nc1nc(C(F)(F)F)c(-c2ccc(F)nc2)s1 [Example 8, N-[5-(6-fluoropyridin-3-yl)-4-(trifluoromethyl)-1,3-thiazol-2-yl]-4,6-dimethoxypyrimidine-5-carboxamide]"
6,> 1000,"COc1ncnc(OC)c1C(=O)Nc1nc(C)c(C)s1 [Example 9, N-(4,5-dimethyl-1,3-thiazol-2-yl)-4,6-dimethoxypyrimidine-5-carboxamide]"
7,< 50,"C#Cc1sc(NC(=O)c2c(OC)ncnc2OC)nc1C(F)(F)F [Example 11, N-[5-ethynyl-4-(trifluoromethyl)-1,3-thiazol-2-yl]-4,6-dimethoxypyrimidine-5-carboxamide]"
8,< 50,"COc1ncnc(OC)c1C(=O)Nc1nc(C(F)(F)F)c(C#CC2CC2)s1 [Example 14, N-[5-(cyclopropylethynyl)-4-(trifluoromethyl)-1,3-thiazol-2-yl]-4,6-dimethoxypyrimidine-5-carboxamide]"
9,< 50,"COCC#Cc1sc(NC(=O)c2c(OC)ncnc2OC)nc1C(F)(F)F [Example 15, 4,6-dimethoxy-N-[5-(3-methoxyprop-1-yn-1-yl)-4-(trifluoromethyl)-1,3-thiazol-2-yl]pyrimidine-5-carboxamide]"
10,< 50,"COCCCc1sc(NC(=O)c2c(OC)ncnc2OC)nc1C(F)(F)F [Example 16, 4,6-dimethoxy-N-[5-(3-methoxypropyl)-4-(trifluoromethyl)-1,3-thiazol-2-yl]pyrimidine-5-carboxamide]"
11,< 50,"COC/C=C\c1sc(NC(=O)c2c(OC)ncnc2OC)nc1C(F)(F)F [Example 17, 4,6-dimethoxy-N-{5-[(1Z)-3-methoxyprop-1-en-1-yl]-4-(trifluoromethyl)-1,3-thiazol-2-yl}pyrimidine-5-carboxamide]"
12,50 to 100,"COc1ncnc(OC)c1C(=O)Nc1nc(C(F)(F)F)c(C#CC(C)(C)O)s1 [Example 19, N-[5-(3-hydroxy-3-methylbut-1-yn-1-yl)-4-(trifluoromethyl)-1,3-thiazol-2-yl]-4,6-dimethoxypyrimidine-5-carboxamide]"
13,500 to 1000,"COc1ncnc(OC)c1C(=O)Nc1nc(C(F)(F)F)c(CCC(C)(C)O)s1 [Example 20, N-[5-(3-hydroxy-3-methylbutyl)-4-(trifluoromethyl)-1,3-thiazol-2-yl]-4,6-dimethoxypyrimidine-5-carboxamide]"
14,< 50,"CCOC(=O)c1sc(NC(=O)c2c(OC)ncnc2OC)nc1C(F)(F)F [Example 21, ethyl 2-{[(4,6-dimethoxypyrimidin-5-yl)carbonyl]amino}-4-(trifluoromethyl)-1,3-thiazole-5-carboxylate]"
15,> 1000,"COc1ncnc(OC)c1C(=O)Nc1nc(C(F)(F)F)c(CCO)s1 [Example 22, N-[5-(2-hydroxyethyl)-4-(trifluoromethyl)-1,3-thiazol-2-yl]-4,6-dimethoxypyrimidine-5-carboxamide]"
